Here are results for 16 compounds from US20150005281A1, “PYRIMIDINE-2,4-DIAMINE DERIVATIVES AS KINASE INHIBITORS” (Cellzome Limited, priority 2011, published 2015).

Assay type in all cases: binding
One assay has as its target T1, JAK2 (Homo sapiens, UniProt O60674).
T1 construct: endogenous in cells; host or cells: Molt4 (ATCC CRL-1582) and Ramos (ATCC CRL-1596) cells; mixed lysate 1:2
Briefly: Kinobeads assay with immunodetection, JAK2. The conditions noted are these: mixed Molt4/Ramos lysate, read-out: Inhibition values (IC50) JAK2. Put shortly: (§1)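 Competition binding of test compounds against an immobilized aminopyrido-pyrimidine affinity matrix in mixed Molt4/Ramos lysate (1:2, 10 mg/mL protein). Incubation was 3 h in the cold with shaking; kinases captured on the beads were eluted, quantified by antibody dot blot with infrared detection, and IC50s were derived from dose-response curves.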

The next assay has as its target T2, JAK1 (Homo sapiens, UniProt P23458).
T2 construct: endogenous in cells; host or cells: Molt4 (ATCC CRL-1582) and Ramos (ATCC CRL-1596) cells; mixed lysate 1:2
Briefly: Kinobeads assay with immunodetection, JAK1. The note with it: for IC50: Kinobeads assay, mixed Molt4/Ramos lysate, read-out: Inhibition values (IC50) JAK1. Put shortly: as §1

A further assay deals with T3, JAK3 (Homo sapiens, UniProt P52333).
T3 construct: endogenous in cells; host or cells: Molt4 (ATCC CRL-1582) and Ramos (ATCC CRL-1596) cells; mixed lysate 1:2
T3 sequence (P52333 1-1124): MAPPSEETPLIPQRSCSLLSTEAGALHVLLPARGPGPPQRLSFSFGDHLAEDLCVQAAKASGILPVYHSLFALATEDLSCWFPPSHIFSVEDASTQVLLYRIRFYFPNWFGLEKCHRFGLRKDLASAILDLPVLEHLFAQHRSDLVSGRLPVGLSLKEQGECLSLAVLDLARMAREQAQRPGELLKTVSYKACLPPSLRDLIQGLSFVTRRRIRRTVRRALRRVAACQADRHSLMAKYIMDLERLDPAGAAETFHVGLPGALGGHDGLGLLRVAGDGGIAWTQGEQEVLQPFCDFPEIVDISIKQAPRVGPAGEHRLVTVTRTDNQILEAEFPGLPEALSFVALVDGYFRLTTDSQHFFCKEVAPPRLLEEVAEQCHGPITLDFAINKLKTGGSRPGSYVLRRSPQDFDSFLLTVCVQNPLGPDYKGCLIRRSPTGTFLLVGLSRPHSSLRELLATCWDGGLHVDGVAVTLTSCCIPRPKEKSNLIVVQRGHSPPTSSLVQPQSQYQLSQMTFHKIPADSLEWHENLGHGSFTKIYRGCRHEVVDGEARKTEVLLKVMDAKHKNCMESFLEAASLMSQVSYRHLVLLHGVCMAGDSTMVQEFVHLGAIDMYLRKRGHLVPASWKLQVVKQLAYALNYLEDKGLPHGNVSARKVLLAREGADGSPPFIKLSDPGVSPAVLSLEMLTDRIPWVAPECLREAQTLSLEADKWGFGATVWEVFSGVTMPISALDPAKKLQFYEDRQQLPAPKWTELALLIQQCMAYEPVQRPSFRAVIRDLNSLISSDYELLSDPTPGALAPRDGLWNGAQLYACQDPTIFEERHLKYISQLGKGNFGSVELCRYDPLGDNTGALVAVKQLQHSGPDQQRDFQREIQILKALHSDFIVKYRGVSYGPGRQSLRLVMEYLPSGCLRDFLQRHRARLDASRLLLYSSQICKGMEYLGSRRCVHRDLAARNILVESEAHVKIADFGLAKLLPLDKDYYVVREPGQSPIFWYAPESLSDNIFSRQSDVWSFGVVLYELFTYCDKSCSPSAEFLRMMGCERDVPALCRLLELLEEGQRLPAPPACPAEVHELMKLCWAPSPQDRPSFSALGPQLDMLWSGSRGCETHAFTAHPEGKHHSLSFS
As to the kind of experiment: Kinobeads assay with immunodetection, JAK3. The conditions noted are these: for IC50: Kinobeads assay, mixed Molt4/Ramos lysate, read-out: Inhibition values (IC50) JAK3. Put shortly:
as §1

Another assay deals with T4, TYK2 (Homo sapiens, UniProt P29597).
T4 construct: endogenous in cells; host or cells: Molt4 (ATCC CRL-1582) and Ramos (ATCC CRL-1596) cells; mixed lysate 1:2
As to the kind of experiment: Kinobeads assay with immunodetection, TYK2. The note with it: for IC50: Kinobeads assay, mixed Molt4/Ramos lysate, read-out: Inhibition values (IC50) Tyk2. Put shortly: as §1

Structures are written as SMILES.

T2 sequence (P23458 whole entry): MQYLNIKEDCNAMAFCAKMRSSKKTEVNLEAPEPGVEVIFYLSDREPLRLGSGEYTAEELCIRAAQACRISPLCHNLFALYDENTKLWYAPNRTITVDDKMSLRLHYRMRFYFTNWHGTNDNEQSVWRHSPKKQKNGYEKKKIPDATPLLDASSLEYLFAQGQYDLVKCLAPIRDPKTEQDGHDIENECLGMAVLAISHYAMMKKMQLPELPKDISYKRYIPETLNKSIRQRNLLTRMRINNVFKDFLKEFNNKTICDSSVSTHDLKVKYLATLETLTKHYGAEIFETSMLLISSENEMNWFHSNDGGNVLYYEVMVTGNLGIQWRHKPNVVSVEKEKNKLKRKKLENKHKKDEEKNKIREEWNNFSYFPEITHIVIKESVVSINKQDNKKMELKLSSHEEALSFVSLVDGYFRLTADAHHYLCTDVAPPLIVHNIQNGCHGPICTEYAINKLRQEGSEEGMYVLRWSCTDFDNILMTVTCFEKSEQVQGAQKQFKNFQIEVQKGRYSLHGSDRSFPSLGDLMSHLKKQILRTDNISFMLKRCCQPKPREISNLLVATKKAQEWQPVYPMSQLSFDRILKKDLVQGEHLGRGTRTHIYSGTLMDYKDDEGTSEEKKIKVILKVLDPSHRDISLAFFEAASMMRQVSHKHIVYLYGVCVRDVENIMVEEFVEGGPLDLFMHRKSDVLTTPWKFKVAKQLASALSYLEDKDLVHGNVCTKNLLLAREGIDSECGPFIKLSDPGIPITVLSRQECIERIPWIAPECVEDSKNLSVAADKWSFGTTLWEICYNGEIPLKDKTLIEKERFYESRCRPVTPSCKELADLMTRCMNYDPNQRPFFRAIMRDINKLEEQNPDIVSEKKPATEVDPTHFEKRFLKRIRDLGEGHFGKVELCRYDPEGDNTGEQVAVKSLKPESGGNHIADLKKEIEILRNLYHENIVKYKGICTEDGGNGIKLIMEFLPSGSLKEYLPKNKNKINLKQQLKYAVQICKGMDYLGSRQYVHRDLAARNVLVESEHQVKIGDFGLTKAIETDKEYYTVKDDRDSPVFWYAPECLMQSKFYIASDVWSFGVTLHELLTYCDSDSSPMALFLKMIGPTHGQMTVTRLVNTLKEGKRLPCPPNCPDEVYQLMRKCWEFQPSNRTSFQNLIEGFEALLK
T4 sequence (P29597 whole entry): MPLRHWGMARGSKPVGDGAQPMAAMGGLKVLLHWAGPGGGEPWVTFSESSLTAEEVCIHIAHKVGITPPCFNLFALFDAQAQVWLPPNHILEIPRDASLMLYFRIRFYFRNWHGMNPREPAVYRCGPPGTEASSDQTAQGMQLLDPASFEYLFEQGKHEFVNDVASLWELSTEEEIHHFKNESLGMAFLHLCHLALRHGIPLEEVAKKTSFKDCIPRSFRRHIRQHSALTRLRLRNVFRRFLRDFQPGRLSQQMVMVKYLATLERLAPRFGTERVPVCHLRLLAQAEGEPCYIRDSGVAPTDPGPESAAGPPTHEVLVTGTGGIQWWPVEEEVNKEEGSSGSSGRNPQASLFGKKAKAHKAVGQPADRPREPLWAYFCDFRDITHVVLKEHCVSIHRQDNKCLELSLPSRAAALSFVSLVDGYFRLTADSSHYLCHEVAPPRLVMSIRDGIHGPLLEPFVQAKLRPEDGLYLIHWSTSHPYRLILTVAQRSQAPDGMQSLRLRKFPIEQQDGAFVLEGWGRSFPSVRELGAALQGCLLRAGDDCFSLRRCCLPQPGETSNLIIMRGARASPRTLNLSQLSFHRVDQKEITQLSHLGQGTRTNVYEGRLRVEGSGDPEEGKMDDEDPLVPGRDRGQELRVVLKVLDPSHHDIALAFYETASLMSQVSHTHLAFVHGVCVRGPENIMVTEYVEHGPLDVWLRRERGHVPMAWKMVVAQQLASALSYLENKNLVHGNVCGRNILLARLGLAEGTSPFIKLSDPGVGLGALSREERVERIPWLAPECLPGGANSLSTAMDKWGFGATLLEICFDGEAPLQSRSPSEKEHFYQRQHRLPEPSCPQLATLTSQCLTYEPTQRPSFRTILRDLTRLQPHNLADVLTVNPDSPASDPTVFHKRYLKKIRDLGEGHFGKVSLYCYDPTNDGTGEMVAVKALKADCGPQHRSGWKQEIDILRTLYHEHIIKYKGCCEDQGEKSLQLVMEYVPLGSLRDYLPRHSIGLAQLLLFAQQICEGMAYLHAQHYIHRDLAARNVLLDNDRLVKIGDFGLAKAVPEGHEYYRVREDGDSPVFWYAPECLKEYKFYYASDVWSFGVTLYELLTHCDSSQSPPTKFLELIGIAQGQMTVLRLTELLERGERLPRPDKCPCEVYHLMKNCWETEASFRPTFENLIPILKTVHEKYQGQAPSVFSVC
T1 sequence (O60674 whole entry): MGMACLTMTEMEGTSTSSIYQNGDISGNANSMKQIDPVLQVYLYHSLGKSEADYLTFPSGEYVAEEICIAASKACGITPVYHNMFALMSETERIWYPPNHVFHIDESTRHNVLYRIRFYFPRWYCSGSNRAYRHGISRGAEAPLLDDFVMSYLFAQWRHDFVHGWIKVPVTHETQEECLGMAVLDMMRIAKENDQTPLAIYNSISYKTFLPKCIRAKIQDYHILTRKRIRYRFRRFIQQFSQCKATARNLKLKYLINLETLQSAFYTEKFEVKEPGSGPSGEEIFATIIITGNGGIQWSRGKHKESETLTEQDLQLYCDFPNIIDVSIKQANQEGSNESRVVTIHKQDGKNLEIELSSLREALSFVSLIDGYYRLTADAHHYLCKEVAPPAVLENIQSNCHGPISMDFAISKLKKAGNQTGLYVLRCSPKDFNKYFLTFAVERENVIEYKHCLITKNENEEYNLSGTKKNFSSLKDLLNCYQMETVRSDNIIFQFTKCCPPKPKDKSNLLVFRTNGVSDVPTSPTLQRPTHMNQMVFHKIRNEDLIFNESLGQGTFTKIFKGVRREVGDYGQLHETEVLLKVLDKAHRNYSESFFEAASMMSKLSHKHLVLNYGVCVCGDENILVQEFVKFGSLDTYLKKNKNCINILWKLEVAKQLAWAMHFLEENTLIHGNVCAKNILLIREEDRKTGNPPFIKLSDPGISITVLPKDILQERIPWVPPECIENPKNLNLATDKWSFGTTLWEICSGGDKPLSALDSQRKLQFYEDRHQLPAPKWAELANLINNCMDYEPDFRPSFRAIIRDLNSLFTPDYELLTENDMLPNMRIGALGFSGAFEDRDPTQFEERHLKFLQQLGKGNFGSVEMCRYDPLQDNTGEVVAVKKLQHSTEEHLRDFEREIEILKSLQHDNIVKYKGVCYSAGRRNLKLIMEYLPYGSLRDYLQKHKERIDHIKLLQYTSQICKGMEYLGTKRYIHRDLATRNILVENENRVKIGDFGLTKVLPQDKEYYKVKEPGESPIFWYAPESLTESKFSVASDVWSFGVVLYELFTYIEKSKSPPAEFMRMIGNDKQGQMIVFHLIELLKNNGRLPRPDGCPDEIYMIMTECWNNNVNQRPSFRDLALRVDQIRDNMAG

A word on the IC50: it is the concentration at which inhibition is half-maximal. As for `Cn1cc(Nc2ncc(Cl)c(NC[C@H]3CCCN3CCC#N)n2)cn1` [Example 49, (R)-3-(2-((5-chloro-2-(1-methyl-1H-pyrazol-4-ylamino)pyrimidin-4-ylamino)methyl)pyrrolidin-1-yl)propanenitrile], the IC50 at JAK2 was 100 to 1000 nM; on JAK1 it was less than 100 nM; on JAK3, less than 100 nM; on TYK2, less than 100 nM. Moreover, the “Selectivity ratio over JAK2, Tyk2” value at TYK2 is “Tyk2 = 42”.

Turning to `Cn1cc(Nc2ncc(Cl)c(NCC3CCCN(C(=O)CC#N)C3)n2)cn1` (centres unmarked) [Example 134, 3-(3-(((5-chloro-2-((1-methyl-1H-pyrazol-4-yl)amino)pyrimidin-4-yl)amino)methyl)piperidin-1-yl)-3-oxopropanenitrile], the IC50 on JAK2 is 100 to 1000 nM; at JAK1 it was less than 100 nM; at JAK3, less than 100 nM; at TYK2 it was less than 100 nM. The “Selectivity ratio over JAK2, JAK3” value on JAK3 is “JAK3 = 32”.

Turning to `Cn1cc(Nc2ncc(Cl)c(NC[C@@H]3C[C@H](F)CN3CCC#N)n2)cn1` [Example 90, 3-((2S,4S)-2-(((5-chloro-2-((1-methyl-1H-pyrazol-4-yl)amino)pyrimidin-4-yl)amino)methyl)-4-fluoropyrrolidin-1-yl)propanenitrile], the IC50 is 100 to 1000 nM at JAK2, less than 100 nM at JAK1, less than 100 nM at JAK3 and less than 100 nM on TYK2. For the same compound, the “Selectivity ratio over JAK2, JAK1” value on JAK1 was “JAK1 = 23”.

`Cn1cc(Nc2ncc(Cl)c(NC[C@@H]3CCCN3CCC#N)n2)cn1` [Example 81, (S)-3-(2-(((5-chloro-2-((1-methyl-1H-pyrazol-4-yl)amino)pyrimidin-4-yl)amino)methyl)pyrrolidin-1-yl)propanenitrile]: the IC50 at JAK2 is less than 100 nM; on JAK1, less than 100 nM; at JAK3 it was 100 to 1000 nM; at TYK2 it was less than 100 nM. Moreover, the “Selectivity ratio over JAK2, Tyk2” value at TYK2 is reported as “Tyk2 = 11”.

As for `CN(C)CC(=O)N1CCC[C@@H]1CNc1nc(Nc2cnn(C)c2)ncc1Cl` [Example 53, (R)-1-(2-((5-chloro-2-(1-methyl-1H-pyrazol-4-ylamino)pyrimidin-4-ylamino)methyl)pyrrolidin-1-yl)-2-(dimethylamino)ethanone], the IC50 on JAK2 was 1000 to 10000 nM; on JAK1 it was less than 100 nM; on JAK3, 100 to 1000 nM; on TYK2, 100 to 1000 nM. In addition, the “Selectivity ratio over JAK2, JAK1” value at JAK1 was “JAK1 = 93”.

On to `CCN1CCC[C@@H]1CNc1nc(Nc2cnn(C)c2)ncc1Cl` [Example 60, (R)-5-chloro-N^4-((1-ethylpyrrolidin-2-yl)methyl)-N^2-(1-methyl-1H-pyrazol-4-yl)pyrimidine-2,4-diamine], for which the IC50 was more than 10000 nM at JAK2, 100 to 1000 nM at JAK1, 100 to 1000 nM at JAK3 and 100 to 1000 nM at TYK2. For the same compound, the “Selectivity ratio over JAK2, JAK1” value on JAK1 was “JAK1 = 45”.

For the compound `Cc1cnc(Nc2cnn(C)c2)nc1NC[C@H]1CCCN1S(C)(=O)=O` [Example 76, (R)-5-methyl-N^2-(1-methyl-1H-pyrazol-4-yl)-N^4-((1-(methylsulfonyl)pyrrolidin-2-yl)methyl)pyrimidine-2,4-diamine], the IC50 at JAK2 was 100 to 1000 nM; on JAK1 it was less than 100 nM; at JAK3 it was less than 100 nM; at TYK2 it was less than 100 nM. Moreover, the “Selectivity ratio over JAK2, JAK1” value on JAK1 is recorded as “JAK1 = 26”.

Take `C=CC(=O)N1CCC[C@@H]1CNc1nc(Nc2cnn(CCO)c2)ncc1Cl` [Example 4, (R)-1-(2-(((5-chloro-2-((1-(2-hydroxyethyl)-1H-pyrazol-4-yl)amino)pyrimidin-4-yl)amino)methyl)pyrrolidin-1-yl)prop-2-en-1-one]: the IC50 is 100 to 1000 nM at JAK2, less than 100 nM at JAK1, 100 to 1000 nM on JAK3 and less than 100 nM on TYK2. In addition, on TYK2, the “Selectivity ratio over JAK2, Tyk2” value is “Tyk2 = 8”.

For `Cn1cc(Nc2ncc(Cl)c(NC[C@H]3CCN(S(C)(=O)=O)C3)n2)cn1` [Example 24, (R)-5-chloro-N^2-(1-methyl-1H-pyrazol-4-yl)-N^4-((1-(methylsulfonyl)pyrrolidin-3-yl)methyl)pyrimidine-2,4-diamine], the IC50 on JAK2 was 100 to 1000 nM; on JAK1, less than 100 nM; on JAK3, 100 to 1000 nM; on TYK2, less than 100 nM. Besides, the “Selectivity ratio over JAK2, JAK1” value at JAK1 is recorded as “JAK1 = 23”.

Regarding `Cn1cc(Nc2ncc(Cl)c(NC[C@@H]3CCCN(C(=O)CC#N)C3)n2)cn1` [Example 135, (S)-3-(3-(((5-chloro-2-((1-methyl-1H-pyrazol-4-yl)amino)pyrimidin-4-yl)amino)methyl)piperidin-1-yl)-3-oxopropanenitrile], the half-maximal inhibitory concentration (IC50) at JAK2 was 100 to 1000 nM; on JAK1 it was less than 100 nM; on JAK3 it was less than 100 nM; at TYK2 it was less than 100 nM. Also, the “Selectivity ratio over JAK2, JAK3” value at JAK3 is listed as “JAK3 = 40”.

Consider `CS(=O)(=O)N1CCCC[C@H]1CNc1nc(Nc2cnn(CCO)c2)ncc1Cl` [Example 37, (S)-2-(4-((5-chloro-4-(((1-(methylsulfonyl)piperidin-2-yl)methyl)amino)pyrimidin-2-yl)amino)-1H-pyrazol-1-yl)ethanol], for which the IC50 at JAK2 is 1000 to 10000 nM; at JAK1, less than 100 nM; at JAK3 it was less than 100 nM; at TYK2, 100 to 1000 nM. Also, on JAK3, the “Selectivity ratio over JAK2, JAK3” value is on record as “JAK3 = 64”.

Consider `C=CC(=O)N1CC[C@H](CNc2nc(Nc3cnn(CCO)c3)ncc2Cl)C1` [Example 23, (R)-1-(3-(((5-chloro-2-((1-(2-hydroxyethyl)-1H-pyrazol-4-yl)amino)pyrimidin-4-yl)amino)methyl)pyrrolidin-1-yl)prop-2-en-1-one], for which the IC50 on JAK2 is 1000 to 10000 nM; at JAK1 it was less than 100 nM; at JAK3 it was less than 100 nM; on TYK2 it was less than 100 nM. In addition, at JAK3, the “Selectivity ratio over JAK2, JAK3” value is listed as “JAK3 = 270”.

In the case of `Cc1cnc(Nc2cnn(C)c2)nc1NC[C@@H]1C[C@H](F)CN1CCC#N` [Example 101, 3-((2S,4S)-4-fluoro-2-(((5-methyl-2-((1-methyl-1H-pyrazol-4-yl)amino)pyrimidin-4-yl)amino)methyl)pyrrolidin-1-yl)propanenitrile], the IC50 was 100 to 1000 nM on JAK2, less than 100 nM on JAK1, 100 to 1000 nM at JAK3 and less than 100 nM on TYK2. Besides, the “Selectivity ratio over JAK2, JAK1” value at JAK1 is on record as “JAK1 = 17”.

With `CS(=O)(=O)N1CCC[C@H]1CNc1nc(Nc2cnn(CCO)c2)ncc1Cl` [Example 13, (S)-2-(4-((5-chloro-4-(((1-(methylsulfonyl)pyrrolidin-2-yl)methyl)amino)pyrimidin-2-yl)amino)-1H-pyrazol-1-yl)ethanol], the IC50 at JAK2 is 100 to 1000 nM; at JAK1, less than 100 nM; on JAK3 it was less than 100 nM; on TYK2, less than 100 nM. The “Selectivity ratio over JAK2, JAK1” value at JAK1 is “JAK1 = 13”.

Take `CC(=O)N1CCCC[C@@H]1CNc1nc(Nc2cnn(CCO)c2)ncc1Cl` [Example 40, (R)-1-(2-(((5-chloro-2-((1-(2-hydroxyethyl)-1H-pyrazol-4-yl)amino)pyrimidin-4-yl)amino)methyl)piperidin-1-yl)ethanone]: the IC50 on JAK2 is 100 to 1000 nM; at JAK1 it was 100 to 1000 nM; on JAK3, less than 100 nM; on TYK2, less than 100 nM. At TYK2, the “Selectivity ratio over JAK2, Tyk2” value is given as “Tyk2 = 10”.

Consider `Cn1cc(Nc2ncc(Cl)c(NC[C@H]3CCCN(C(=O)CC#N)C3)n2)cn1` [Example 137, (R)-3-(3-(((5-chloro-2-((1-methyl-1H-pyrazol-4-yl)amino)pyrimidin-4-yl)amino)methyl)piperidin-1-yl)-3-oxopropanenitrile], for which the 50% inhibitory concentration (IC50) at JAK2 was 100 to 1000 nM; at JAK1 it was less than 100 nM; at JAK3 it was less than 100 nM; on TYK2 it was less than 100 nM. Also, the “Selectivity ratio over JAK2, JAK3” value at JAK3 is “JAK3 = 33”.
